# Test system: high fat diet ZDF rats
# Assay: NAFLD/NASH animal model, high fat diet ZDF rats
# Format: in vivo, rat
# Details: high fat diet ZDF male rats; all three doses (0.3, 1.0, 3 mg/kg) PO q.d. for 5 weeks
# Method: Twelve week old ZDF male rats (n=6 per group) were acclimated for 3 weeks prior to study initiation then fed with either a high fat (D12492+0.5% added cholesterol with 55% wt/vol fructose in drinking water) or low fat (DL12405J) diets. The compound of Example 10 above, vehicle, or pioglitizone were administered by oral gavage q.d. for 5 weeks as described in Table 1.
# Body weights were recorded weekly, and blood samples were collected from all animals at the end of weeks 4, 5, 6 and 7 following an overnight fast, and triglycerides, cholesterol, AST, ALT, insulin, and BG were measured in singlet. After week 8, the livers were harvested from all animals and weighed. The left lobe was placed in 10% NBF for NASH scoring by PAI (H % E staining, Oil Red O staining and Sirius Red staining). One half of the right lobe was snap-frozen for qPCR (to quantify type 1 collagen, insulin receptor, IGF-1, ceramide synthase 2, sphingomyelin phosphodiesterase 3, MCP-1 and IL-6). The remaining right lobe was snap-frozen for estimation of liver triglycerides and cholesterol.
compound,measurement,value
"CCc1oc(-c2ccc(OC)cc2)nc1CCOc1ccc2c(c1)CC[C@H]2CC(=O)O [Example 10, (S)-2-(5-(2-(5-ethyl-2-(4-methoxyphenyl)oxazol-4-yl)ethoxy)-2,3-dihydro-1H-inden-1-yl)acetic acid]",protection from NASH like symptoms,protection from NASH like symptoms

# Reference: patent US20180117013A1, “METHODS OF TREATING LIVER DISEASE USING INDANE ACETIC ACID DERIVATIVES” (T3D THERAPEUTICS, INC., priority 2015, published 2018)
